Measured values from patent publication US20260365671A1, “HETEROCYCLIC COMPOUND” (Takeda Pharmaceutical Company Limited, priority 2022, published 2026).

Legend:
NF-κB pathway = experiment: TNF-α assay (THP-1 cells differentiated to macrophages with IFN-γ, NF-κB pathway activated with LPS; ELISA); format: cell-based, Human; settings: compound 30 min, 50 ng/mL LPS 3 hours
In short: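 THP-1 cells differentiated with 25 ng/mL IFN-γ for 24 h, then 30 min with compounds in serum-free medium. NF-κB activated with 50 ng/mL LPS, 3 h at 37 °C. Supernatant TNF-α by ELISA; IC50 from four-parameter logistic fit of % inhibition.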

NLRP3 inflammasome = target: T1, NLRP3 inflammasome (Homo sapiens, UniProt Q96P20); experiment: IL-1β TR-FRET assay (THP-1 cells differentiated to macrophages with IFN-γ, LPS primed, ATP activated; HTRF); format: cell-based; settings: THP-1 macrophages, 50 ng/mL LPS priming, compound 30 min, 20 mM ATP 2 hours
T1 construct: IL-1beta HTRF
In short: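 THP-1 cells differentiated with 25 ng/mL IFN-γ for 24 h, primed with 50 ng/mL LPS in serum-free medium for 24 h, then treated with compounds for 30 min before 20 mM ATP activation for 2 h at 37 °C. Secreted IL-1β quantified by HTRF; IC50 from logistic fit of % inhibition.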

[1] = Homo sapiens, THP-1, THP-1 macrophages

T1 sequence (Q96P20 whole entry): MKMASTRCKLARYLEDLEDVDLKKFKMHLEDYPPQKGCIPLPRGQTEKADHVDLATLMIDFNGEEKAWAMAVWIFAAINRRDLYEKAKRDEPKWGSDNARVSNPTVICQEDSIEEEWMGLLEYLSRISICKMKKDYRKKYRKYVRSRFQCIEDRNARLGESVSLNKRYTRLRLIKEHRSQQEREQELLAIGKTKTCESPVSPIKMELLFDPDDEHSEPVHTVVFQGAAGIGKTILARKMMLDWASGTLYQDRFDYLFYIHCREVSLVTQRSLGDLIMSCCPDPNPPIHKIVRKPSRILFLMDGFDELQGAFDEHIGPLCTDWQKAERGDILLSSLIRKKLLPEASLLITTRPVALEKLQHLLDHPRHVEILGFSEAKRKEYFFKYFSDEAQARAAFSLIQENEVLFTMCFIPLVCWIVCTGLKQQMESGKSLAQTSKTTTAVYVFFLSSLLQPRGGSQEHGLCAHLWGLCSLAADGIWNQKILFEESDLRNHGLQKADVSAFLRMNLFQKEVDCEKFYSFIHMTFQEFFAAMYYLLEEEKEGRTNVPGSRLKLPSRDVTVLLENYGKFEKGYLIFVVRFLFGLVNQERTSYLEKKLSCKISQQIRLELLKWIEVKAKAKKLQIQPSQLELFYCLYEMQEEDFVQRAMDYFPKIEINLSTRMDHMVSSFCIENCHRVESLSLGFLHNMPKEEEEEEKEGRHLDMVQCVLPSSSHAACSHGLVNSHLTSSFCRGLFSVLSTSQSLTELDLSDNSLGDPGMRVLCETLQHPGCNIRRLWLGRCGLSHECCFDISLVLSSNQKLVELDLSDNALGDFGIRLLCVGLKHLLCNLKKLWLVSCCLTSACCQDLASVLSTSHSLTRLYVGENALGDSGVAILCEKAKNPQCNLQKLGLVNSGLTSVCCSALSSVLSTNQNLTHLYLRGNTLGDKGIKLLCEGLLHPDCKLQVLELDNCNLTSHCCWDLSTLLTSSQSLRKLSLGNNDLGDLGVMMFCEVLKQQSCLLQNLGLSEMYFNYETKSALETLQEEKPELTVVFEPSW

Row | Compound | IC50 (NF-κB pathway; [1]) [nM] | IC50 (NLRP3 inflammasome) [nM] | IC50 (NF-κB pathway; THP-1 macrophages) [nM]
1 | Cc1cnc(-n2nc3nc(N[C@@H]4CCCN(C)C4)sc3c2C)c(O)c1 [Example 58, 5-methyl-2-(3-methyl-5-{[(3R)-1-methylpiperidin-3-yl]amino}-2H-pyrazolo[3,4-d][1,3]thiazol-2-yl)pyridin-3-ol] | > 30000 | 2600 | –
2 | Cc1cc(C)c(-n2cc3sc(NC4(CF)COC4)nc3n2)c(O)c1 [Example 170, 2-(5-{[3-(fluoromethyl)oxetan-3-yl]amino}-2H-pyrazolo[3,4-d][1,3]thiazol-2-yl)-3,5-dimethylphenol] | > 30000 | 2000 | –
3 | Cc1cc(C)c(-n2cc3sc(N[C@@H]4CCN(C)C(=O)C4)nc3n2)c(O)c1 [Example 137, (4R)-4-{[2-(2-hydroxy-4,6-dimethylphenyl)-2H-pyrazolo[3,4-d][1,3]thiazol-5-yl]amino}-1-methylpiperidin-2-one] | > 30000 | 1100 | –
4 | CNC(=O)N1CCC(Nc2nc3nn(-c4c(C)cc(C)cc4O)cc3s2)CC1 [Example 131, 4-{[2-(2-hydroxy-4,6-dimethylphenyl)-2H-pyrazolo[3,4-d][1,3]thiazol-5-yl]amino}-N-methylpiperidine-1-carboxamide] | > 30000 | 580 | –
5 | Cc1cc(C)c(-n2cc3sc(NC4C5CC6CC4CC(O)(C6)C5)nc3n2)c(O)c1 (centres unmarked) [Example 151, 4-{[2-(2-hydroxy-4,6-dimethylphenyl)-2H-pyrazolo[3,4-d][1,3]thiazol-5-yl]amino} adamantan-1-ol] | > 10000 | 6800 | –
6 | Cc1cc(C)c(-n2cc3sc(N[C@H]4COC[C@H]4F)nc3n2)c(O)c1 (single isomer, unassigned) [Example 145, 2-(5-{[(3R,4R)-4-fluorooxolan-3-yl]amino}-2H-pyrazolo[3,4-d][1,3]thiazol-2-yl)-3,5-dimethylphenol or 2-(5-{[(3S,4S)-4-fluorooxolan-3-yl]amino}-2H-pyrazolo[3,4-d][1,3]thiazol-2-yl)-3,5-dimethylphenol (tR2)] | – | 440 | > 30000
7 | CC(=O)NCCCCNc1nc2nn(-c3c(C)cc(C)cc3O)cc2s1 [Example 39] | > 30000 | 390 | –
8 | Cc1cc(C)c(-n2cc3sc(NC(CO)CO)nc3n2)c(O)c1 [Example 168, 2-{[2-(2-hydroxy-4,6-dimethylphenyl)-2H-pyrazolo[3,4-d][1,3]thiazol-yl]amino}propane-1,3-diol] | > 30000 | 370 | –
9 | Cc1cc(C)c(-n2cc3sc(N[C@@H]4CCN(CC(F)F)C4)nc3n2)c(O)c1 [Example 67, 2-(5-{[1-(2,2-difluoroethyl)pyrrolidin-3-yl]amino}-2H-pyrazolo[3,4-d][1,3]thiazol-2-yl)-3,5-dimethylphenol] | > 30000 | 950 | –
10 | Cc1cc(C)c(-n2cc3sc(NC[C@@H]4CCCO4)nc3n2)c(O)c1 [Example 116, 3,5-dimethyl-2-[5-({[(2S)-oxolan-2-yl]methyl}amino)-2H-pyrazolo[3,4-d][1,3]thiazol-2-yl]phenol] | > 30000 | 1100 | –
11 | Cc1cc(C)c(-n2cc3sc(NC4CCCC4O)nc3n2)c(O)c1 (centres unmarked) [Example 28, 2-{5-[(2-hydroxycyclopentyl)amino]-2H-pyrazolo[3,4-d][1,3]thiazol-2-yl}-3,5-dimethylphenol] | > 10000 | 480 | –
12 | Cc1cc(C)c(-n2cc3sc(N[C@H]4CN(C)C[C@H]4F)nc3n2)c(O)c1 (racemic) [Example 22, racemic mixture of 2-(5-{[(3R,4S)-4-fluoro-1-methylpyrrolidin-3-yl]amino}-2H-1-pyrazolo[3,4-d][1,3]thiazol-2-yl)-3,5-dimethyl-phenol and 2-(5-{[(3S,4R)-4-fluoro-methylpyrrolidin-3-yl]amino}-2H-pyrazolo[3,4-d][1,3]thiazol-2-yl)-3,5-dimethylphenol] | > 30000 | 1100 | –
13 | Cc1cc(C)c(-n2cc3sc(NCC4(O)COC4)nc3n2)c(O)c1 [Example 161, 3-({[2-(2-hydroxy-4,6-dimethylphenyl)-2H-pyrazolo [3,4-d][1,3]thiazol-5-yl]amino}methyl)oxetan-3-ol] | > 30000 | 16000 | –
14 | COCC(=O)N1CCC(Nc2nc3nn(-c4c(C)cc(C)cc4O)cc3s2)C1 (centres unmarked) [Example 89, 1-(3-{[2-(2-hydroxy-4,6-dimethylphenyl)-2H-pyrazolo[3,4-d][1,3]thiazol-5-yl]amino}pyrrolidin-1-yl)-2-methoxyethan-1-one] | – | 550 | > 30000
15 | Cc1cc(C)c(-n2cc3sc(N[C@H]4C[C@@](C)(O)C4)nc3n2)c(O)c1 [Example 31, 2-{5-[(cis-3-hydroxy-3-methylcyclobutyl)amino]-2H-pyrazolo[3,4-d][1,3]thiazol-2-yl}-3,5-dimethylphenyl] | > 30000 | 650 | –

Stronger by IC50 (NLRP3 inflammasome), values ahead:

Row | IC50 (NF-κB pathway; [1]) [nM] | IC50 (NLRP3 inflammasome) [nM] | IC50 (NF-κB pathway; THP-1 macrophages) [nM] | Compound
16 | > 30000 | 330 | – | Cc1cc(C)c(-n2cc3sc(N[C@@H]4CCOC4)nc3n2)c(O)c1 [Example 157, 3,5-dimethyl-2-(5-{[(3R)-oxolan-3-yl]amino}-2H-pyrazolo[3,4-d][1,3]thiazol-2-yl)phenol]
17 | > 30000 | 290 | – | CN1C[C@H](F)C[C@@H](Nc2nc3nn(-c4c(O)cccc4Cl)cc3s2)C1 [Example 8, 3-chloro-2-(5-{[(3R,5R)-5-fluoro-1-methylpiperidin-3-yl]amino}-2H-pyrazolo[3,4-d][1,3]thiazol-2-yl)phenol]
18 | > 30000 | 270 | – | Cc1cc(C)c(-n2cc3sc(N[C@@H]4CCN(C(=O)OC5CC5)C4)nc3n2)c(O)c1 [Example 153, cyclopropyl (3R)-3-{[2-(2-hydroxy-4,6-dimethylphenyl)-2H-pyrazolo[3,4-d][1,3]thiazol-5-yl]amino}pyrrolidine-1-carboxylate]
19 | > 10000 | 260 | – | Cc1cc(C)c(-n2cc3sc(NC4CCN(C(=O)CC5CC5)C4)nc3n2)c(O)c1 (centres unmarked) [Example 97, 2-cyclopropyl-1-(3-{[2-(2-hydroxy-4,6-dimethylphenyl)-2H-pyrazolo[3,4-d][1,3]thiazol-5-yl]amino}pyrrolidin-1-yl)ethan-1-one]
20 | > 10000 | 240 | – | Cc1cc(C)c(-n2cc3sc(N[C@@H]4CC[C@@H](O)C4)nc3n2)c(O)c1 [Example 44, 2-(5-{[(1R,3R)-3-hydroxycyclopentyl]amino}-2H-pyrazolo[3,4-d][1,3]thiazol-2-yl)-3,5-dimethyphenol or 2-(5-{[(1S,3S)-3-hydroxycyclopentyl]amino}-2H-pyrazolo[3,4-d][1,3]thiazol-2-yl)-3,5-dimethylphenol (tR1)]
21 | > 10000 | 120 | – | CCc1cc(C)cc(O)c1-n1cc2sc(NC34CCC(O)(CC3)C4)nc2n1 [Example 150, 4-{[2-(2-ethyl-6-hydroxy-4-methylphenyl)-2H-pyrazolo[3,4-d][1,3]thiazol-5-yl]amino}bicyclo[2.2.1]heptan-1-ol]
22 | > 10000 | 90 | – | COc1cc(C)c(-n2cc3sc(N[C@H]4CN(C)C[C@@H]4F)nc3n2)c(O)c1 [Example 135, 2-(5-{[(3S,4S)-4-fluoro-1-methylpyrrolidin-3-yl]amino}-2H-pyrazolo[3,4-d][1,3]thiazol-2-yl)-5-methoxy-3-methylphenol]
23 | > 30000 | 75 | – | Cc1cc(OC(F)F)cc(O)c1-n1cc2sc(N[C@@H]3C[C@@H](F)CN(C)C3)nc2n1 [Example 107, 5-(difluoromethoxy)-2-(5-{[(3R,5R)-5-fluoro-1-methylpiperidin-3-yl]amino}-2H-pyrazolo[3,4-d][1,3]thiazol-2-yl)-3-methylphenol]
24 | > 30000 | 66 | – | Cc1cc(O)c(-n2cc3sc(NC45CCC(O)(CC4)C5)nc3n2)c(C2CC2(F)F)c1 (centres unmarked) [Example 149, 4-({2-[2-(2,2-difluorocyclopropyl)-6-hydroxy-4-methylphenyl]-2H-pyrazolo[3,4-d][1,3]thiazol-5-yl}amino)bicyclo[2.2.1]heptan-1-ol]
25 | > 30000 | 37 | – | Cc1cc(O)c(-n2cc3sc(N[C@@H]4C[C@@H](F)CN(C)C4)nc3n2)c(Cl)c1 [Example 11, 3-chloro-2-(5-{[(3R,5R)-5-fluoro-1-methylpiperidin-3-yl]amino}-2H-pyrazolo[3,4-d][1,3]thiazol-2-yl)-5-methylphenol]
26 | > 30000 | 11 | – | Oc1cc(F)cc(Cl)c1-n1cc2sc(N[C@@H]3CCCN(C4CC4)C3)nc2n1 [Example 18, 3-chloro-2-(5-{[(3R)-1-cyclopropyl-piperidin-3-yl]amino}-2H-pyrazolo[3,4-d][1,3]thiazol-2-yl)-5-fluorophenol]
27 | > 10000 | 4.3 | – | CCN1C[C@H](F)C[C@@H](Nc2nc3nn(-c4c(O)cc(Cl)cc4C(F)F)cc3s2)C1 [Example 78, 5-chloro-3-(difluoromethyl)-2-(5-{[(3R,5R)-1-ethyl-5-fluoropiperidin-3-yl]amino}-2H-pyrazolo[3,4-d][1,3]thiazol-2-yl)phenol]
28 | > 30000 | 3.8 | – | Cc1cc(O)c(-n2cc3sc(N[C@@H]4C[C@@H](F)CN(C)C4)nc3n2)c(C2CC2(F)F)c1 (single isomer, unassigned) [Example 126, 3-[(R)-2,2-difluorocyclopropyl]-2-(5-{[(3R,5R)-5-fluoro-1-methylpiperidin-3-yl]amino}-2H-pyrazolo[3,4-d][1,3]thiazol-2-yl)-5-methylphenol or 3-[(S)-2,2-difluorocyclopropyl]-2-(5-{[(3R,5R)-5-fluoro-1-methylpiperidin-3-yl]amino}-2H-pyrazolo[3,4-d][1,3]thiazol-2-yl)-5-methylphenol (tR2)]
